Assay results taken from paper PMC12207589, “Exploring Linear mono-, bis- and tris-Acetylene Containing Agonists of the Human Olfactory Receptor OR1A1” (Journal of Medicinal Chemistry, 2025).
Where “and” joins values, the source holds several entries; their conditions need not be identical. Equal values may be shown once. Entries after “also recorded” stand apart in the source; their conditions may differ.

Experiments:
OR1A1 olfactory receptor = details: cited from earlier work; for EC50: enantiomers of citronellol on OR1A1, already reported, reference number not given; for agonist quality on OR1A1 (in words): known OR1A1 agonists, Introduction and Figure 1, reference numbers not given
[1] = biological target: T1, human olfactory receptor OR1A1 (Homo sapiens, UniProt Q9P1Q5); assay: Dual-Glo luciferase assay of olfactory receptor activation (agonist dose-response); assay type: cell-based; details: for EC50: OR1A1 response, best-fit value with 95% confidence interval, EC50 = ligand concentration for half-maximal response; for agonist activity / response of OR1A1 (in words): luciferase assay, normalized responses
T1 construct: expressed in transfected cells; host or cells: HEK293T-derived cells
T1 sequence (Q9P1Q5 1-309): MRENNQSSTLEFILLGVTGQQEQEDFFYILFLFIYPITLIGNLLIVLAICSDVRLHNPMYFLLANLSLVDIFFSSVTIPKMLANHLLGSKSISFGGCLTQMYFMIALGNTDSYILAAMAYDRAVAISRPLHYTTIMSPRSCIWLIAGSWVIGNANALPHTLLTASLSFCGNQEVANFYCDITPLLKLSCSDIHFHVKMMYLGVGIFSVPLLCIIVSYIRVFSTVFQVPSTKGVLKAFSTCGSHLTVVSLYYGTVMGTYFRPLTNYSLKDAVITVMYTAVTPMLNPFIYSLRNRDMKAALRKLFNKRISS
Protocol: Olfactory receptor activation was evaluated using the Dual-Glo Luciferase Assay System (Promega (Beijing) Biotech Co., Ltd., Beijing, China). HEK293T-derived cells were maintained in minimal essential medium (Sigma) containing 10% fetal bovine serum (Sigma) (M10), 500 µg/mL penicillin–streptomycin (Invitrogen), and 6 µg/mL amphotericin B (Sigma) in a 37 °C incubator with 5% CO2. After culturing to a desired confluence, the cells were plated on 96-well plates (Corning Inc., Kennebunk, ME, USA). For each 96-well plate, 1 μg of CRE-luciferase, 0.5 μg of pRL-SV40, 0.5 μg of OR, 0.5 μg of RTP1S, and 0.25 μg of M3R were transfected using the transfection reagent Lipofectamine2000 (Invitrogen, Life Technologies Corp., Carlsbad, CA, USA). Twenty-four hours post transfection, the transfection media were removed, and the cells were rinsed with 50 μL PBS buffer (pH 7.4) per well. The cells were then stimulated with 25 μL 1% (v/v) ligand samples diluted in CD293 stimulation medium (Gibco Brand, ThermoFisher Biochemical Products (Beijing) Co., Ltd., Beijing, China). Four hours post stimulation, firefly luciferase (FL) and Renilla luciferase (RL) activities were measured following manufacturer’s protocols, using a Synergy H1 plate reader (BioTek Instruments, Winooski, VT, USA). Normalized luciferase activity was calculated using the formula: FL/RLX-FL/RLXC, where FL/RLX is the response to the ligands, FL/RLXC is the basal value of the same OR. Each experiment was repeated at least 3 times and error bars indicate standard error mean. Data were analyzed with GraphPad Prism.

CC(C)=CCC[C@@H](C)CCO [(R)-7, citronellol]
EC50 (OR1A1 olfactory receptor): 82.5 µM

C[C@@H](O)C#CC#Cc1ccc(C(C)(C)C)cc1 [(R)-21]
EC50 [1]: 7.45 µM and 7.41 µM | agonist activity / response of OR1A1 (in words) [1]: strongest agonist effect

CC(C)=CCC[C@H](C)CCO [(S)-7, citronellol]
EC50 (OR1A1 olfactory receptor): 92.6 µM

C[C@H](O)C#CC#Cc1ccc(C(C)(C)C)cc1 [(S)-21]
EC50 [1]: 24 µM

C[C@@H]1CCCCCCCCCCCCC(=O)C1 [compound 1, muscone]
agonist quality on OR1A1 (in words) (OR1A1 olfactory receptor): very poor agonists

CC(=O)c1c(C)c([N+](=O)[O-])c(C(C)(C)C)c([N+](=O)[O-])c1C [compound 2, musk ketone]
agonist quality on OR1A1 (in words) (OR1A1 olfactory receptor): very poor agonists

CC(C)=CCCC(C)CCO (centres unmarked) [compound 7, citronellol]
agonist quality on OR1A1 (in words) (OR1A1 olfactory receptor): good agonist

CCCCCC(=O)C(C)C(C)=O (centres unmarked) [compound 9, 3-methyl-2,4-nonanedione]
agonist quality on OR1A1 (in words) (OR1A1 olfactory receptor): extremely potent agonist

CC(=O)c1ccc(C#CC#CC(C)(C)C)cc1 [compound 13]
EC50 [1]: 36.3 µM | agonist activity / response of OR1A1 (in words) [1]: activated OR1A1

CC(=O)c1cccc(C#CC#CC(C)(C)C)c1 [compound 14]
EC50 [1]: 35.5 µM | agonist activity / response of OR1A1 (in words) [1]: activated OR1A1

CC(=O)C#CC#Cc1ccc(C(C)(C)C)cc1 [compound 15]
agonist activity / response of OR1A1 (in words) [1]: essentially inactive

CC(C)(C)C#CC#Cc1ccc2c(c1)C(=O)CC2 [compound 16]
agonist activity / response of OR1A1 (in words) [1]: not active

CC(C)(C)C#CC#Cc1cccc2c1CCC2=O [compound 17]
agonist activity / response of OR1A1 (in words) [1]: micromolar range potency with modest to good agonist efficacy

CC(C)(C)C#CC#Cc1ccc2c(c1)COC2 [compound 18]
agonist activity / response of OR1A1 (in words) [1]: displayed a stronger response

CC(=O)c1cccc(C#CC#CC#CC(C)(C)C)c1 [compound 19]
agonist activity / response of OR1A1 (in words) [1]: did not result in an active compound; also recorded: weak agonist

CC(C)(C)c1ccc(C#CC#CCO)cc1 [compound 20]
EC50 [1]: 42.7 µM | agonist activity / response of OR1A1 (in words) [1]: strong agonist activity

CC(O)C#CC#Cc1ccc(C(C)(C)C)cc1 (centres unmarked) [compound 21]
EC50 [1]: 43.7 µM | agonist activity / response of OR1A1 (in words) [1]: much stronger interaction with the OR1A1 receptor than the corresponding ketone 15

CC(C)(O)C#CC#Cc1ccc(C(C)(C)C)cc1 [compound 22]
agonist activity / response of OR1A1 (in words) [1]: weakest agonist in this alcohol series
